Test results as given in publication PMC6757289, “Design and Characterization of SGK3-PROTAC1, an Isoform Specific SGK3 Kinase PROTAC Degrader” (ACS Chemical Biology, 2019).
Like-named read-outs stand apart in the source and are kept apart here.

Experiments:
Test in all cases: kinase profiling panel
Type in all cases: biochemical
Details in all cases: read-out: % Activity Remaining
IKK beta = target: T1, IKK beta (Homo sapiens, UniProt O14920)
T1 sequence (O14920 1-756): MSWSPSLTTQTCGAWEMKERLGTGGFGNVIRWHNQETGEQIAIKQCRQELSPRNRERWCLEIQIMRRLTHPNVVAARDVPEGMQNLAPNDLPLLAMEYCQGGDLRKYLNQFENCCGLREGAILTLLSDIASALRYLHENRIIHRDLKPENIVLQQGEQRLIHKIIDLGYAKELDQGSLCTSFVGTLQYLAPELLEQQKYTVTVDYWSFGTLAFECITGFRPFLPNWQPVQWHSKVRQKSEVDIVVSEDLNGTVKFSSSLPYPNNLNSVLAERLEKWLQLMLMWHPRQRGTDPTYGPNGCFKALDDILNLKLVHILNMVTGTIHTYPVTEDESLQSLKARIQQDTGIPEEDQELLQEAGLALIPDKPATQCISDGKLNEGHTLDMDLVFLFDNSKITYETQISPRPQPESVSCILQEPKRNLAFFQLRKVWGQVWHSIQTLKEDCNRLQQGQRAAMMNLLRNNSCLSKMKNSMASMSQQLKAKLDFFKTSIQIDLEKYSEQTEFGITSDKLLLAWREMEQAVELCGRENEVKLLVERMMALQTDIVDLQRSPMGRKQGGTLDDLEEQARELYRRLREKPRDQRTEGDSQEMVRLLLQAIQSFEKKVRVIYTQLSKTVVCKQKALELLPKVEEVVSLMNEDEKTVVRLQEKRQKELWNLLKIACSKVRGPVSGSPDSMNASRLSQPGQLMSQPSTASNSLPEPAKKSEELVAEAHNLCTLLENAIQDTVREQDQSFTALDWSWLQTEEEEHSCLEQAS
Excerpt: (§1) Protein kinase profiling against a Dundee panel of 140 protein kinases was undertaken at the International Centre for Protein Kinase Profiling. The result for each kinase was presented as a mean kinase activity of the reaction taken in triplicate relative to a control sample treated with DMSO. Assay conditions and abbreviations are available at http://www.kinase-screen.mrc.ac.uk.

JNK3 = JNK3 (Homo sapiens, UniProt P53779)
Sequence of JNK3 (P53779 whole entry): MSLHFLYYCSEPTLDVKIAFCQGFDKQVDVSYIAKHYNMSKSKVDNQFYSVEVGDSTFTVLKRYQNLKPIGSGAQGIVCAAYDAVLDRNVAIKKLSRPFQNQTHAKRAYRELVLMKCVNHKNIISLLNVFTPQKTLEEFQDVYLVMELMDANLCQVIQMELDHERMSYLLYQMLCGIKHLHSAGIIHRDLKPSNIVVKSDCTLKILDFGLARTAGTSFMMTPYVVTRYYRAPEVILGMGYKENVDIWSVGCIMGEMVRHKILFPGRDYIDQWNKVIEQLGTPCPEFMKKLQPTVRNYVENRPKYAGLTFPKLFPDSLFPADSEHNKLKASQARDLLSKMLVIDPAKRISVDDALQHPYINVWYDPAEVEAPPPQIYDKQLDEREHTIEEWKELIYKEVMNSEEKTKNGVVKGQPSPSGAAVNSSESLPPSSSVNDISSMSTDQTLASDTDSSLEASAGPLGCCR
Excerpt: as §1

EPH-A4 = EPH-A4 (Homo sapiens, UniProt P54764)
Sequence of EPH-A4 (P54764 20-986): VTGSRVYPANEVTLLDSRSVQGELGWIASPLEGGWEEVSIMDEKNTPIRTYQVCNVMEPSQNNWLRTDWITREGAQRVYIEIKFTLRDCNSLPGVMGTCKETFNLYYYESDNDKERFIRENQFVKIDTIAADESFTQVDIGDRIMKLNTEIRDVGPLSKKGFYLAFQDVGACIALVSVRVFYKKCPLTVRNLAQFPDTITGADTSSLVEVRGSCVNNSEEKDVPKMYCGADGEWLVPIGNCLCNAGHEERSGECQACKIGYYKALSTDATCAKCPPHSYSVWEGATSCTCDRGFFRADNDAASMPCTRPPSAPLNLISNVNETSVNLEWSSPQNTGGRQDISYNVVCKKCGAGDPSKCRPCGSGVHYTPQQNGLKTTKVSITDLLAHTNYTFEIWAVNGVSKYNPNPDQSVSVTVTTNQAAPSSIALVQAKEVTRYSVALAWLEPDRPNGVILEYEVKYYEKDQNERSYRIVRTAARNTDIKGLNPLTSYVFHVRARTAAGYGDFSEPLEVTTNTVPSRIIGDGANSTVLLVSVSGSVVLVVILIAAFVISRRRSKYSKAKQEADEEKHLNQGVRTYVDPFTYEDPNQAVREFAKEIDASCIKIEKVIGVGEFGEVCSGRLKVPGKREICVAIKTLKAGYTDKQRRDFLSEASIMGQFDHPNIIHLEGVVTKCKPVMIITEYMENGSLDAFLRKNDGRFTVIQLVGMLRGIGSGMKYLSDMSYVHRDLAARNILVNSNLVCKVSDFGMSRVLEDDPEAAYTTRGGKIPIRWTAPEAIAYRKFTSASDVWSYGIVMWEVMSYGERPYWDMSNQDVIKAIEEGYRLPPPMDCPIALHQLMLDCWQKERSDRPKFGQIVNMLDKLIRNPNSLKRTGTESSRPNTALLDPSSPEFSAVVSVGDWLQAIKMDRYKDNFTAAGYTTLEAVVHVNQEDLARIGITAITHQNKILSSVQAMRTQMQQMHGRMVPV
Excerpt: as §1

CDK2-Cyclin A = CDK2-Cyclin A (Homo sapiens, UniProt P24941)
Excerpt: as §1

EPH-B3 = target: T2, EPH-B3 (Homo sapiens, UniProt P54753)
T2 sequence (P54753 34-998): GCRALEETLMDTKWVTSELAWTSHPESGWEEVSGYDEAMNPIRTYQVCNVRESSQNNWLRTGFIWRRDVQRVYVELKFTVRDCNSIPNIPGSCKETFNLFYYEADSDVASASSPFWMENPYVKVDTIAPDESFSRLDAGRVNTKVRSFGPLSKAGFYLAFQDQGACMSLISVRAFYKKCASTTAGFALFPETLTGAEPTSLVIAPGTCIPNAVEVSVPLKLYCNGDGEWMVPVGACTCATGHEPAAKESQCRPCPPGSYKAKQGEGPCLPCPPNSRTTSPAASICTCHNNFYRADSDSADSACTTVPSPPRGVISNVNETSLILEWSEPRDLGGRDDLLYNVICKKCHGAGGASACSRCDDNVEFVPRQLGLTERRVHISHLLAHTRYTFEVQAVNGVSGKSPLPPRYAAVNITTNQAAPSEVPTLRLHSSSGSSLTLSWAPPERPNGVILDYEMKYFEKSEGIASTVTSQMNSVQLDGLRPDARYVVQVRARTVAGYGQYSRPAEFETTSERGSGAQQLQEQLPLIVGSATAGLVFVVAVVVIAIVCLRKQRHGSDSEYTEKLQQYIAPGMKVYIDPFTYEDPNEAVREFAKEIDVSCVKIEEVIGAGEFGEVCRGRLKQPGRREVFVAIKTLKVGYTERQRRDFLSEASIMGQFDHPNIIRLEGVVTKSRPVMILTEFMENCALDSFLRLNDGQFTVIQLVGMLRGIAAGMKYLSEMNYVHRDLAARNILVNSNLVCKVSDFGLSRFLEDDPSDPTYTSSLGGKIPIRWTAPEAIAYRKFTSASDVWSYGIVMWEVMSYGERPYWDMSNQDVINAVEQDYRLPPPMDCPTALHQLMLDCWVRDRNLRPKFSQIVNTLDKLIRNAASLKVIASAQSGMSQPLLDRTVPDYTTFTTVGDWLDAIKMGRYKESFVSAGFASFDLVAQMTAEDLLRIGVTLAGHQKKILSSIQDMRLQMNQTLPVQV
Excerpt: as §1

CDK9-Cyclin T1 = CDK9-Cyclin T1 (Homo sapiens, UniProt P50750)
Sequence of CDK9-Cyclin T1 (P50750 whole entry): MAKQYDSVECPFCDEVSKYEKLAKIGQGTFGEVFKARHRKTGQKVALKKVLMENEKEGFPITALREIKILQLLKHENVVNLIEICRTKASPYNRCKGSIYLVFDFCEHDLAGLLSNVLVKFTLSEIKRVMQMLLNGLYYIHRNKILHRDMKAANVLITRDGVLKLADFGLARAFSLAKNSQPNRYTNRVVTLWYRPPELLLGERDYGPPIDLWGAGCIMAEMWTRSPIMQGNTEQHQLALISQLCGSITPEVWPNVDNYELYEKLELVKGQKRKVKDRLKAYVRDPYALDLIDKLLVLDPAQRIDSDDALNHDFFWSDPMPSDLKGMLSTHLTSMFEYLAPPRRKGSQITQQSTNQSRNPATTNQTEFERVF
Sequence of CDK9-Cyclin T1 (O60563 whole entry partner): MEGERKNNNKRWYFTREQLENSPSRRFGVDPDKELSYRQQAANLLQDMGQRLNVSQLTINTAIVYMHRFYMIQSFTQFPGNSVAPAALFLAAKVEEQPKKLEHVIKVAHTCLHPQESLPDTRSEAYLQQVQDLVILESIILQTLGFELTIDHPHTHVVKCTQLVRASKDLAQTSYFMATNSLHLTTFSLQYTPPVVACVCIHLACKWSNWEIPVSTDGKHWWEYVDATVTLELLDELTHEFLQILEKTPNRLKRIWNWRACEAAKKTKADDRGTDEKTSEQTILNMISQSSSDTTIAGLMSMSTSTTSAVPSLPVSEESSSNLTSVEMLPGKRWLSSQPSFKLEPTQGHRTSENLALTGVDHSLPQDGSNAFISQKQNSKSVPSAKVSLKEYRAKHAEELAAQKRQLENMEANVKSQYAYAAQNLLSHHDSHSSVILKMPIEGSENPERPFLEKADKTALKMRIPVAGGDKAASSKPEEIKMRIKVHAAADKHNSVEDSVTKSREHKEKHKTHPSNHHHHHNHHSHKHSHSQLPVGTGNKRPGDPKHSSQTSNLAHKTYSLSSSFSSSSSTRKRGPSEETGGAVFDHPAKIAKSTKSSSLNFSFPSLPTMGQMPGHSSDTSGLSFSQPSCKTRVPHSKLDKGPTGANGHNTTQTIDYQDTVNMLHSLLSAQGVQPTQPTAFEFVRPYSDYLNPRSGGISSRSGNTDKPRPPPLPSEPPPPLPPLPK
Excerpt: as §1

CAMK1 = CAMK1 (Homo sapiens, UniProt Q14012)
Sequence of CAMK1 (Q14012 whole entry): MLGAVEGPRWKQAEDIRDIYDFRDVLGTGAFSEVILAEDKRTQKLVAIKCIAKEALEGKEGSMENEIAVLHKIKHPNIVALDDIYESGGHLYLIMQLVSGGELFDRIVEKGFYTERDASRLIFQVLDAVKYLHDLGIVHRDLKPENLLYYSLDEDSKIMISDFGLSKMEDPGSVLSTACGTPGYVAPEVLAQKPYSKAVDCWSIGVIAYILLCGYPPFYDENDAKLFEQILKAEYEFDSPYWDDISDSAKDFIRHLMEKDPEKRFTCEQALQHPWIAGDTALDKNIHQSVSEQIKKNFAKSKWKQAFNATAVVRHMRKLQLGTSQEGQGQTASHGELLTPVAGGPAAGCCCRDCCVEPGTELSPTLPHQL
Excerpt: as §1

CLK2 = CLK2 (Homo sapiens, UniProt P49760)
Sequence of CLK2 (P49760 whole entry): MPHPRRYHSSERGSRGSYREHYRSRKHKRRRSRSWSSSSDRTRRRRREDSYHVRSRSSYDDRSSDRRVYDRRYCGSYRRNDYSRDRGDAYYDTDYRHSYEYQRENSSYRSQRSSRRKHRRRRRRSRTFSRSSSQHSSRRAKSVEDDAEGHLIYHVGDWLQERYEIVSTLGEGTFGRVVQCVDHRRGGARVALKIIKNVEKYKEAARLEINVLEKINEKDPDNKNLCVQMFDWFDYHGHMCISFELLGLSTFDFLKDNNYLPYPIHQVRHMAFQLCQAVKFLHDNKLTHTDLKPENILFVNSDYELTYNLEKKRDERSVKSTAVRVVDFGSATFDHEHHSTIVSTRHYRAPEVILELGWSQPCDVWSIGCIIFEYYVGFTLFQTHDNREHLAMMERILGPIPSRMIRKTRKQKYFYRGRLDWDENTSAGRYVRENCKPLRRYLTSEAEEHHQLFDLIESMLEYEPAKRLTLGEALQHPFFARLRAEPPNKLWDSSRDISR
Excerpt: as §1

Row | Compound | remaining activity at 1 µM (IKK beta) | remaining activity at 1 µM (JNK3) | remaining activity at 1 µM (EPH-A4) | remaining activity at 1 µM (CDK2-Cyclin A) | remaining activity at 1 µM (EPH-B3) | remaining activity at 1 µM (CDK9-Cyclin T1) | remaining activity at 1 µM (CAMK1) | remaining activity at 1 µM (CLK2) | remaining activity at 1 µM (IKK beta; 1 µM) | remaining activity at 1 µM (JNK3; 1 µM) | remaining activity at 1 µM (EPH-A4; 1 µM) | remaining activity at 1 µM (CDK2-Cyclin A; 1 µM) | remaining activity at 1 µM (EPH-B3; 1 µM) | remaining activity at 1 µM (CDK9-Cyclin T1; 1 µM) | remaining activity at 1 µM (CAMK1; 1 µM) | remaining activity at 1 µM (CLK2; 1 µM)
1 | COc1ccc(Cl)c(S(=O)(=O)Nc2ccc(-c3nc(OC[C@H]4CNCCO4)c4c(C)n[nH]c4n3)cc2)c1 [290-R, reference compound] | 102% | 104% | 95% | 94% | 104% | 105% | 3% | 88% | – | – | – | – | – | – | – | –
2 | Cc1ccc(F)c(S(=O)(=O)Nc2ccc(-c3nc(OC[C@H]4CNCCO4)c4cn[nH]c4n3)cc2)c1 [308-R, reference compound] | 67% | 112% | 53% | 61% | 64% | 63% | 22% | 104% | – | – | – | – | – | – | – | –
3 | Cc1ccc(F)c(S(=O)(=O)Nc2ccc(-c3nc(OC[C@H]4CN(CCCCCCOCCOCCOCC(=O)N[C@H](C(=O)N5C[C@H](O)C[C@H]5C(=O)NCc5ccc(-c6scnc6C)cc5)C(C)(C)C)CCO4)c4cn[nH]c4n3)cc2)c1 [SGK3-PROTAC1] | – | – | – | – | – | – | – | – | 100% | 92% | 106% | 101% | 92% | 103% | 86% | 104%
4 | Cc1ccc(F)c(S(=O)(=O)Nc2ccc(-c3nc(OC[C@H]4CN(CCCCCCOCCOCCOCC(=O)N[C@H](C(=O)N5C[C@@H](O)C[C@H]5C(=O)NCc5ccc(-c6scnc6C)cc5)C(C)(C)C)CCO4)c4cn[nH]c4n3)cc2)c1 [cisSGK3-PROTAC1] | – | – | – | – | – | – | – | – | 101% | 83% | 89% | 103% | 104% | 105% | 105% | 85%
